US20200339604A1, “PYRAZOLOPYRIMIDINE COMPOUNDS AS JAK INHIBITORS” (Genentech, Inc., priority 2018, published 2020)
Like-named read-outs stand apart in the source and are kept apart here.

Legend:
[1] = biological target: T1, isolated recombinant JAK1 kinase domain (Homo sapiens, UniProt P23458); assay: JAK enzyme assay, JAK1 kinase domain (Caliper LabChip); assay type: biochemical; conditions: 1.5 nM JAK1, ATP 25 μM, Morrison tight binding model
T1 construct: isolated recombinant JAK1 and JAK2 kinase domain
Procedure: (§1) JAK Enzyme Assays were Carried Out as Follows:
(§2) The activity of the isolated recombinant JAK1 and JAK2 kinase domain was measured by monitoring phosphorylation of a peptide derived from JAK3 ([…] fluorescently labeled on the N-terminus with 5-carboxyfluorescein) using the Caliper LabChip® technology (Caliper Life Sciences, Hopkinton, Mass.). To determine inhibition constants (K), compounds were diluted serially in DMSO and added to 50 μL kinase reactions containing purified enzyme (1.5 nM JAK1, or 0.2 nM JAK2), 100 mM HEPES buffer (pH 7.2), 0.015% Brij-35, 1.5 μM peptide substrate, ATP (25 μM), 10 mM MgCl2, 4 mM DTT at a final DMSO concentration of 2%.
(§3) Reactions were incubated at 22° C. in 384-well polypropylene microtiter plates for 30 minutes and then stopped by addition of 25 µL of an EDTA containing solution (100 mM HEPES buffer (pH 7.2), 0.015% Brij-35, 150 mM EDTA), resulting in a final EDTA concentration of 50 mM. After termination of the kinase reaction, the proportion of phosphorylated product was determined as a fraction of total peptide substrate using the Caliper LabChip® 3000 according to the manufacturer's specifications. K values were then determined using the Morrison tight binding model (Morrison, J. F., Biochim. Biophys. Acta. 185:269-296 (1969); William, J. W. and Morrison, J. F., Meth. Enzymol., 63:437-467 (1979)) modified for ATP-competitive inhibition [Ki=Ki, app/(1+[ATP]/Km,app)].

[2] = system: JAK1-dependent STAT6 phosphorylation downstream of IL-13 stimulation, BEAS-2B human bronchial epithelial cells; assay: JAK1 pathway assay in cell lines: IL-13 stimulated STAT6 phosphorylation in BEAS-2B cells (MSD); assay type: cell-based; conditions: IL-13 stimulation 15 min at EC90, read-out: IL-13 p-STAT6 BEAS-2B IC50
Procedure: JAK1 Pathway Assay in Cell Lines was Carried Out as Follows:
Inhibitor potency (EC50) was determined in cell-based assays designed to measure JAK1 dependent STAT phosphorylation. As noted above, inhibition of IL-4, IL-13, and IL-9 signaling by blocking the Jak/Stat signaling pathway can alleviate asthmatic symptoms in pre-clinical lung inflammation models (Mathew et al., 2001, J Exp Med 193(9): 1087-1096; Kudlacz et. al., 2008, Eur J. Pharmacol 582(1-3): 154-161).
In one assay approach, TF-1 human erythroleukemia cells obtained from the American Type Culture Collection (ATCC; Manassas, Va.) were used to measure JAK1-dependent STAT6 phosphorylation downstream of IL-13 stimulation. Prior to use in the assays, TF-1 cells were starved of GM-CSF overnight in OptiMEM medium (Life Technologies, Grand Island, N.Y.) supplemented with 0.5% charcoal/dextran stripped fetal bovine serum (FBS), 0.1 mM non-essential amino acids (NEAA), and 1 mM sodium pyruvate. The assays were run in 384-well plates in serum-free OptiMEM medium using 300,000 cells per well. In a second assay approach, BEAS-2B human bronchial epithelial cells obtained from ATCC were plated at 100,000 cells per well of a 96-well plate one day prior to the experiment. The BEAS-2B assay was run in complete growth medium (bronchial epithelial basal medium plus bulletkit; Lonza; Basel, Switzerland).
Test compounds were serially diluted 1:2 in DMSO and then diluted 1:50 in medium just before use. Diluted compounds were added to the cells, for a final DMSO concentration of […], and incubated for 30 m (for the TF-1 assay) or […] (for the BEAS-2B assay) at 37° C. Then, cells were stimulated with human recombinant cytokine at their respective EC90 concentrations, as previously determined for each individual lot. Cells were stimulated with IL-13 (R&D Systems, Minneapolis, Minn.) for 15 min at 37° C. The TF-1 cell reactions were stopped by the direct addition of 10× lysis buffer (Cell Signaling Technologies, Danvers, Mass.), whereas the BEAS-2B cell incubations were halted by the removal of medium and addition of 1× lysis buffer. The resultant samples were frozen in the plates at −80° C. Compound mediated inhibition of STAT6 phosphorylation was measured in the cell lysates using MesoScale Discovery (MSD) technology (Gaithersburg, Md.).

[3] = biological target: T2, isolated recombinant JAK2 kinase domain (Homo sapiens, UniProt O60674); assay: JAK enzyme assay, JAK2 kinase domain (Caliper LabChip); assay type: biochemical; conditions: 0.2 nM JAK2, ATP 25 μM, Morrison tight binding model
T2 construct: isolated recombinant JAK1 and JAK2 kinase domain
Procedure: as §1, §2, §3

T1 sequence (P23458 875-1153 limits assumed): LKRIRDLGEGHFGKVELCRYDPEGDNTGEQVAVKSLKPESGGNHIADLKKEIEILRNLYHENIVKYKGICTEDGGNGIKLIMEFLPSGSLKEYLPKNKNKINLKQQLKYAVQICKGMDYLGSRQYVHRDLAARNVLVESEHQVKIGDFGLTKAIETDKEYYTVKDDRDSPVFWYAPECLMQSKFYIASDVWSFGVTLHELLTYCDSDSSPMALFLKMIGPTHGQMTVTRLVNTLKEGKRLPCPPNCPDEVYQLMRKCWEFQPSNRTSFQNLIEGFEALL
T2 sequence (O60674 849-1124 limits assumed): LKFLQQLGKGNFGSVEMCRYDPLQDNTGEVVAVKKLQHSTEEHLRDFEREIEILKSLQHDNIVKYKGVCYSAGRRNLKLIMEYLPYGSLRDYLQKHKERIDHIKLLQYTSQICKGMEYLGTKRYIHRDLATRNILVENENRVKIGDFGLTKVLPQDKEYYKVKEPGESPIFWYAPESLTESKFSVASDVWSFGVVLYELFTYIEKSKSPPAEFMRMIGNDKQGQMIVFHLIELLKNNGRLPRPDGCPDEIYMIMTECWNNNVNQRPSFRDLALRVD

SMILES	Ki [1] [nM]	Ki [3] [nM]	IC50 ([2]; Homo sapiens, BEAS-2B, […]) [nM]	IC50 [2] [nM]
CS(=O)(=O)c1ccc(OC(F)F)c(-c2nn(C3CCOC3=O)cc2NC(=O)c2cnn3cccnc23)c1 (single isomer, unassigned) [Example 40, N-[3-[2-(difluoromethoxy)-5-methylsulfonyl-phenyl]-1-(2-oxotetrahydrofuran-3-yl)pyrazol-4-yl]pyrazolo[1,5-a]pyrimidine-3-carboxamide]	1.1	0.62	120	
O=C(Nc1cn(C2CCN(C3COC3)C2=O)nc1-c1cc(Cl)ccc1OC(F)F)c1cnn2cccnc12 (single isomer, unassigned) [Example 23, N-[3-[5-chloro-2-(difluoromethoxy)phenyl]-1-[1-(oxetan-3-yl)-2-oxo-pyrrolidin-3-yl]pyrazol-4-yl]pyrazolo[1,5-a]pyrimidine-3-carboxamide]	0.51	0.54		23
O=C(Nc1cn(C2CCOC2=O)nc1-c1cc(SC(F)F)ccc1OC(F)F)c1cnn2cccnc12 (single isomer, unassigned) [Example 31, N-[3-[2-(difluoromethoxy)-5-(difluoromethyl-sulfanyl)phenyl]-1-(2-oxotetrahydrofuran-3-yl)pyrazol-4-yl]pyrazolo[1,5-a]pyrimidine-3-carboxamide]	0.7	0.4		16
CN1CCN(C(=O)CN2CCC(n3cc(NC(=O)c4cnn5cccnc45)c(-c4cc(Cl)ccc4OC(F)F)n3)C2=O)CC1 (single isomer, unassigned) [Example 16, N-[3-[5-chloro-2-(difluoromethoxy)phenyl]-1-[1-[2-(4-methylpiperazin-1-yl)-2-oxo-ethyl]-2-oxo-pyrrolidin-3-yl]pyrazol-4-yl]pyrazolo[1,5-a]pyrimidine-3-carboxamide]	2.8	0.68	200	
CN1CCC(n2cc(NC(=O)c3cnn4cccnc34)c(-c3cc(Cl)c(C#N)cc3OC(F)F)n2)C1=O (racemic) [Example 22, N-[3-[5-chloro-4-cyano-2-(difluoromethoxy)phenyl]-1-(1-methyl-2-oxo-pyrrolidin-3-yl)pyrazol-4-yl]pyrazolo[1,5-a]pyrimidine-3-carboxamide]	2.5	4	98	

Second part, led by results:

Ki [1] [nM]	Ki [3] [nM]	SMILES	IC50 ([2]; Homo sapiens, BEAS-2B, […]) [nM]	IC50 [2] [nM]
1.2	1.4	O=C(Nc1cn(C2CCN(CCN3CCOCC3)C2=O)nc1-c1cc(Cl)ccc1OC(F)F)c1cnn2cccnc12 (single isomer, unassigned) [Example 14, N-[3-[5-chloro-2-(difluoromethoxy)phenyl]-1-[1-(2-morpholinoethyl)-2-oxo-pyrrolidin-3-yl]pyrazol-4-yl]pyrazolo[1,5-a] pyrimidine-3-carboxamide]	79	
0.4	0.23	CS(=O)(=O)c1ccc(OC(F)F)c(-c2nn(C3CCOC3=O)cc2NC(=O)c2cnn3cccnc23)c1 (single isomer, unassigned) [Example 41, N-[3-[2-(difluoromethoxy)-5-methylsulfonyl-phenyl]-1-(2-oxotetrahydrofuran-3-yl)pyrazol-4-yl] pyrazolo[1,5-a]pyrimidine-3-carboxamide]		99
2.1	1.1	CN1CCC(n2cc(NC(=O)c3cnn4cccnc34)c(-c3cc(OC(F)F)ccc3OC(F)F)n2)C1=O (single isomer, unassigned) [Example 9, N-[3-[2,5-bis(difluoromethoxy)phenyl]-1-(1-methyl-2-oxo-pyrrolidin-3-yl)pyrazol-4-yl]pyrazolo[1,5-a]pyrimidine-3-carboxamide]		67
